In test [1] the target is human Smo (Homo sapiens (Human), UniProt Q99835). The experiment in a line: Smo radioligand competition binding assay. The note with it: for inhibition at 0.05 µM: 0.05 μM test compound, read-out: Smo % inh. @ 0.05 μM. Summed up:
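Membranes from HEK293 cells expressing surface human Smo 181-781 (40 μg protein/well) incubated 2 h at room temperature with test compound and tritiated Smo antagonist (3 nM), pH 7.5 Tris buffer; filtration and scintillation counting. Non-specific binding defined with 30 μM cold antagonist; IC50 from four-parameter sigmoidal fit.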

For test [2], the system named is Gli-Luc/MEF cells. The test is described as follows: Gli-Luc/MEF assay. It counts as cell-based, mouse. The note with it: Mus musculus, MEF; Shh-stimulated luciferase, 48 hours. Summed up:
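Mouse embryonic fibroblasts from Gli-Luc transgenic mice (luciferase under Gli response element) dosed with compounds (final […], 3-fold series), then stimulated with recombinant mouse Shh at final 2 μg/mL. After 48 h at 37 °C, luminescence read by Bright-Glo; IC50 from inhibition of Shh-induced signal.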

human Smo, sequence (Q99835 181-787): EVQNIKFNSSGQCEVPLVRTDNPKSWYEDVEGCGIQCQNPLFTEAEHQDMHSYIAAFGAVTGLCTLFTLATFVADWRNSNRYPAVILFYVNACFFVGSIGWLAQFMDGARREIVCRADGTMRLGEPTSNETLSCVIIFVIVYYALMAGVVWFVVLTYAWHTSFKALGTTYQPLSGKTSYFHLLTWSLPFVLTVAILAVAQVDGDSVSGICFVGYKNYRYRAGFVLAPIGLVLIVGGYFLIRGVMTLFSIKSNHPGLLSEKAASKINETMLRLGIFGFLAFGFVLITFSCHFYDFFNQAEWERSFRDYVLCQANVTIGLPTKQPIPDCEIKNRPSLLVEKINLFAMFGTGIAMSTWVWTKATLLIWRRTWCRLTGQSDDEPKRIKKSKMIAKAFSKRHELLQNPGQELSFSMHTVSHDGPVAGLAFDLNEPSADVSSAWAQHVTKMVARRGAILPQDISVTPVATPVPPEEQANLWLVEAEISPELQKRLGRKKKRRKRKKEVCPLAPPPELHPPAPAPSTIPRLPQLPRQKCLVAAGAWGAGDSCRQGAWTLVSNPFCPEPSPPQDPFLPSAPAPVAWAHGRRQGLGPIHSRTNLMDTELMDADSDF

Regarding `Cc1cccnc1-c1cc(N2CCC(C(=O)N[C@H]3CCN(S(C)(=O)=O)C3)CC2)ncc1Cl` [Example A-60, 1-(5′-chloro-3-methyl-2,4′-bipyridin-2′-yl)-N-[(3S)-1-(methylsulfonyl)pyrrolidin-3-yl]piperidine-4-carboxamide], in test [1], the half-inhibitory concentration (IC50) is 67 nM and the inhibition at 0.05 µM was found to be 83.8%. Further, the midpoint of inhibition in test [2], the IC50, lay at 57.4 nM.

Take `Cc1cccnc1-c1cc(N2CCC(C(=O)NCCC3C(=O)Nc4ccccc43)CC2)ncc1Cl` (stereo not drawn) [Example A-61, 1-(5′-chloro-3-methyl-2,4′-bipyridin-2′-yl)-N-[2-(2-oxo-2,3-dihydro-1H-indol-3-yl)ethyl]piperidine-4-carboxamide]: in test [1], the IC50 came out at 40.9 nM and the inhibition at 0.05 µM came to 91.9%. In test [2], this compound registered an IC50 of 37.1 nM.

Consider `Cc1cccnc1-c1cc(N2CCC(C(=O)N3CC(S(=O)(=O)CC4CC4)C3)CC2)ncc1Cl` [Example A-62, 5′-chloro-2′-[4-({3-[(cyclopropylmethyl)sulfonyl]azetidin-1-yl}carbonyl)piperidin-1-yl]-3-methyl-2,4′-bipyridine], for which the IC50 was 234 nM in test [1] and 106 nM in test [2]. The inhibition at 0.05 µM in test [1] came out at 72.4%.

`Cc1cccnc1-c1cc(N2CCC(C(=O)NC[C@H]3CCCO3)CC2)ncc1Cl` [Example A-63, 1-(5′-chloro-3-methyl-2,4′-bipyridin-2′-yl)-N-[(2R)-tetrahydrofuran-2-ylmethyl]piperidine-4-carboxamide]: in test [1], the IC50 was determined as 137 nM and the inhibition at 0.05 µM came out at 82.5%. Inhibition in test [2] was half-maximal at 83.6 nM (IC50).

With `Cc1cccnc1-c1cc(N2CCC(C(=O)NCC3(O)CCC3)CC2)ncc1Cl` [Example A-64, 1-(5′-chloro-3-methyl-2,4′-bipyridin-2′-yl)-N-[(1-hydroxycyclobutyl)methyl]piperidine-4-carboxamide], the values for the IC50 in test [1] and in test [2] were 157 nM and 109 nM, respectively. Also, the inhibition at 0.05 µM in test [1] amounted to 78.1%.

In the case of `Cc1cccnc1-c1cc(N2CCC(C(=O)N3CCc4c(c(C(C)C)nn4C)C3)CC2)ncc1Cl` [Example A-65, 5′-chloro-2′-{4-[(3-isopropyl-1-methyl-1,4,6,7-tetrahydro-5H-pyrazolo[4,3-c]pyridin-5-yl)carbonyl]piperidin-1-yl}-3-methyl-2,4′-bipyridine], in test [1], the 50% inhibitory concentration (IC50) stood at 145 nM and the inhibition at 0.05 µM was 78.5%. This compound also gave an IC50 in test [2] of 124 nM.

Regarding `Cc1cccnc1-c1cc(N2CCC(C(=O)N[C@@H]3CC[C@@H](O)C3)CC2)ncc1Cl` [Example A-66, 1-(5′-chloro-3-methyl-2,4′-bipyridin-2′-yl)-N-[(1R,3R)-3-hydroxycyclopentyl]piperidine-4-carboxamide], in test [1], the IC50 is 162 nM and the inhibition at 0.05 µM amounted to 81.7%. For the same compound, the half-inhibitory concentration (IC50) in test [2] was 94 nM.

With `Cc1cccnc1-c1cc(N2CCC(C(=O)NCCS(C)(=O)=O)CC2)ncc1Cl` [Example A-67, 1-(5′-chloro-3-methyl-2,4′-bipyridin-2′-yl)-N-[2-(methylsulfonyl)ethyl]piperidine-4-carboxamide], in test [1], the concentration for half-maximal inhibition (IC50) is 217 nM and the inhibition at 0.05 µM came out at 70.4%. Besides, in test [2], inhibition was half-maximal at 164 nM (IC50).

On to `Cc1cccnc1-c1cc(N2CCC(C(=O)N[C@@H]3CS(=O)(=O)C[C@H]3O)CC2)ncc1Cl` [Example A-68, 1-(5′-chloro-3-methyl-2,4′-bipyridin-2′-yl)-N-[(3S,4S)-4-hydroxy-1,1-dioxidotetrahydro-3-thienyl]piperidine-4-carboxamide], for which, in test [1], the half-maximal inhibitory concentration (IC50) is 120 nM and the inhibition at 0.05 µM was 88.8%. The compound also had a half-maximal inhibitory concentration (IC50) in test [2] of 54.4 nM.

Take `Cc1cccnc1-c1cc(N2CC(C(=O)N(C)[C@@H]3CS(=O)(=O)C[C@H]3O)C2)ncc1Cl` [Example A-69, 1-(5′-chloro-3-methyl-2,4′-bipyridin-2′-yl)-N-[(3S,4S)-4-hydroxy-1,1-dioxidotetrahydro-3-thienyl]-N-methylazetidine-3-carboxamide]: in test [1], the half-maximal inhibitory concentration (IC50) came out at 189 nM and the inhibition at 0.05 µM was 74.4%. Besides, in test [2], the IC50 is 148 nM.

On to `Cc1cccnc1-c1cc(N2CCC(C(=O)N(C)[C@@H]3CS(=O)(=O)C[C@H]3O)CC2)ncc1Cl` [Example A-70, 1-(5′-chloro-3-methyl-2,4′-bipyridin-2′-yl)-N-[(3S,4S)-4-hydroxy-1,1-dioxidotetrahydro-3-thienyl]-N-methylpiperidine-4-carboxamide], for which, in test [1], the IC50 amounted to 42.4 nM and the inhibition at 0.05 µM was 105%. Moreover, half-maximal inhibition in test [2] (IC50) was put at 27.3 nM.

Take `Cc1cccnc1-c1cc(N2CCC(C(=O)NC3CCCCC3O)CC2)ncc1Cl` (stereo not drawn) [Example A-72, 1-(5′-chloro-3-methyl-2,4′-bipyridin-2′-yl)-N-(2-hydroxycyclohexyl)piperidine-4-carboxamide]: in test [1], the IC50 was found to be 28.3 nM and the inhibition at 0.05 µM amounted to 96.3%. In test [2], this compound registered an IC50 of 22.5 nM.

With `Cc1cccnc1-c1cc(N2CCC(C(=O)NCCc3nc4cccnc4n3C)CC2)ncc1Cl` [Example A-73, 1-(5′-chloro-3-methyl-2,4′-bipyridin-2′-yl)-N-[2-(3-methyl-3H-imidazo[4,5-b]pyridin-2-yl)ethyl]piperidine-4-carboxamide], in test [1], the half-maximal inhibitory concentration (IC50) stood at 154 nM and the inhibition at 0.05 µM was 76.1%. This compound showed a concentration for half-maximal inhibition (IC50) in test [2] of 55.8 nM.

As to `Cc1cccnc1-c1cc(N2CCC(C(=O)NCC3CN(CC4CC4)C(=O)CO3)CC2)ncc1Cl` (stereo not drawn) [Example A-74, 1-(5′-chloro-3-methyl-2,4′-bipyridin-2′-yl)-N-{[4-(cyclopropylmethyl)-5-oxomorpholin-2-yl]methyl}piperidine-4-carboxamide], in test [1], the half-inhibitory concentration (IC50) amounted to 25.5 nM and the inhibition at 0.05 µM was determined as 97.8%. The IC50 in test [2] is 23 nM.

On to `Cc1cccnc1-c1cc(N2CCC(C(=O)Nc3cccc(CO)n3)CC2)ncc1Cl` [Example A-75, 1-(5′-chloro-3-methyl-2,4′-bipyridin-2′-yl)-N-[6-(hydroxymethyl)pyridin-2-yl]piperidine-4-carboxamide], for which, in test [1], the IC50 turned out to be 93.3 nM and the inhibition at 0.05 µM worked out at 88.6%. The IC50 in test [2] was 47.9 nM.

`Cc1cccnc1-c1cc(N2CCC(C(=O)NC3(CO)CCCC3)CC2)ncc1Cl` [Example A-76, 1-(5′-chloro-3-methyl-2,4′-bipyridin-2′-yl)-N-[1-(hydroxymethyl)cyclopentyl]piperidine-4-carboxamide]: in test [1], the IC50 worked out at 25.8 nM and the inhibition at 0.05 µM came to 91.6%. The same compound gave an IC50 in test [2] of 18.3 nM.

Regarding `Cc1cccnc1-c1cc(N2CCC(C(=O)NC3CCOCC3)CC2)ncc1Cl` [Example A-77, 1-(5′-chloro-3-methyl-2,4′-bipyridin-2′-yl)-N-(tetrahydro-2H-pyran-4-yl)piperidine-4-carboxamide], the half-inhibitory concentration (IC50) in test [1] worked out at 52.5 nM; in test [2], 48.4 nM. For the same compound, the inhibition at 0.05 µM in test [1] amounted to 87.7%.

On to `Cc1cccnc1-c1cc(N2CCC(C(=O)NC3CCOC3)CC2)ncc1Cl` (stereo not drawn) [Example A-78, 1-(5′-chloro-3-methyl-2,4′-bipyridin-2′-yl)-N-(tetrahydrofuran-3-yl)piperidine-4-carboxamide], for which, in test [1], the IC50 was 295 nM and the inhibition at 0.05 µM was found to be 70.1%. In test [2], this compound displayed an IC50 of 87.3 nM.

Turning to `COc1ccccc1CNC(=O)C1CCN(c2cc(-c3ncccc3C)c(Cl)cn2)CC1` [Example A-79, 1-(5′-chloro-3-methyl-2,4′-bipyridin-2′-yl)-N-(2-methoxybenzyl)piperidine-4-carboxamide], in test [1], the concentration for half-maximal inhibition (IC50) is 161 nM and the inhibition at 0.05 µM was determined as 78.4%. The same compound had an IC50 in test [2] of 30.5 nM.

Regarding `Cc1cccnc1-c1cc(N2CCC(C(=O)NC3CCS(=O)(=O)CC3)CC2)ncc1Cl` [Example A-80, 1-(5′-chloro-3-methyl-2,4′-bipyridin-2′-yl)-N-(1,1-dioxidotetrahydro-2H-thiopyran-4-yl)piperidine-4-carboxamide], in test [1], the IC50 came to 33.6 nM and the inhibition at 0.05 µM is 101%. This compound also gave a concentration for half-maximal inhibition (IC50) in test [2] of 16.5 nM.

Regarding `Cc1cccnc1-c1cc(N2CCC(C(=O)N[C@@H]3CCCC[C@H]3O)CC2)ncc1Cl` [Example A-81, 1-(5′-chloro-3-methyl-2,4′-bipyridin-2′-yl)-N-[(1R,2R)-2-hydroxycyclohexyl]piperidine-4-carboxamide], in test [1], the IC50 stood at 32.6 nM and the inhibition at 0.05 µM came out at 97.9%. Further, the IC50 in test [2] came out at 15.7 nM.

Regarding `Cc1cccnc1-c1cc(N2CCC(C(=O)N3CCN(c4ccc(O)nn4)CC3)CC2)ncc1Cl` [Example A-82, 6-(4-{[1-(5′-chloro-3-methyl-2,4′-bipyridin-2′-yl)piperidin-4-yl]carbonyl}piperazin-1-yl)pyridazin-3-ol], in test [1], the IC50 came to 39.2 nM and the inhibition at 0.05 µM came to 92.6%. The concentration for half-maximal inhibition (IC50) in test [2] is 38.8 nM.

`Cc1cccnc1-c1cc(N2CCC(C(=O)NCC3CCCCO3)CC2)ncc1Cl` (stereo not drawn) [Example A-83, 1-(5′-chloro-3-methyl-2,4′-bipyridin-2′-yl)-N-(tetrahydro-2H-pyran-2-ylmethyl)piperidine-4-carboxamide]: in test [1], the IC50 was found to be 138 nM and the inhibition at 0.05 µM was found to be 78.9%. This compound also gave a 50% inhibitory concentration (IC50) in test [2] of 48.5 nM.

Consider `Cc1cccnc1-c1cc(N2CCC(C(=O)NC3CCOC4(CCN(C)CC4)C3)CC2)ncc1Cl` (stereo not drawn) [Example A-84, 1-(5′-chloro-3-methyl-2,4′-bipyridin-2′-yl)-N-(9-methyl-1-oxa-9-azaspiro[5.5]undec-4-yl)piperidine-4-carboxamide], for which, in test [1], the IC50 is 283 nM and the inhibition at 0.05 µM was found to be 71.5%. In test [2], the concentration for half-maximal inhibition (IC50) came to 92 nM.

The values are drawn from patent US9056865B2, “Pyridine-2-derivatives as smoothened receptor modulators” (Pfizer Inc., priority 2010, dated 2015).
